Target: MCH receptor (Homo sapiens, UniProt Q99705)
Assay: Receptor binding assay with Radiolabelled MCH Ligand
Parameters: expressed in transfected cells; host or cells: 293 cells (human kidney, ATCC), transient transfection; crude membranes
Details: class by percent of control at 10^-7 M or IC50
Description: In addition to the methods described herein, another means for evaluating a test compound is by determining binding affinities to the MCH receptor. This type of assay generally requires a radiolabelled ligand to the MCH receptor. Absent the use of known ligands for the MCH receptor and radiolabels thereof, compounds of Formula (I) can be labelled with a radioisotope and used in an assay for evaluating the affinity of a test compound to the MCH receptor.
A radiolabelled MCH compound of Formula (I) can be used in a screening assay to identify/evaluate compounds. In general terms, a newly synthesized or identified compound (i.e., test compound) can be evaluated for its ability to reduce binding of the “radiolabelled compound of Formula (I)” to the MCH receptor. Accordingly, the ability to compete with the “radio-labelled compound of Formula (I)” or Radiolabelled MCH Ligand for the binding to the MCH receptor directly correlates to its binding affinity of the test compound to the MCH receptor.
293 cells (human kidney, ATCC), transiently transfected with 10 μg human MCH receptor and 60 μl Lipofectamine (per 15-cm dish), are grown in the dish for 24 hours (75% confluency) with a media change and removed with 10 mL/dish of Hepes-EDTA buffer (20 mM Hepes+10 mM EDTA, pH 7.4). The cells are then centrifuged in a Beckman Coulter centrifuge for 20 minutes, 17,000 rpm (JA-25.50 rotor). Subsequently, the pellet is resuspended in 20 mM Hepes+1 mM EDTA, pH 7.4 and homogenized with a 50-mL Dounce homogenizer and again centrifuged. After removing the supernatant, the pellets can be stored at −80° C., until used in binding assay. When used in the assay, membranes are thawed on ice for 20 minutes and then 10 mL of incubation buffer (20 mM Hepes, 1 mM MgCl2, 100 mM NaCl, pH 7.4) added. The membranes are then vortexed to resuspend the crude membrane pellet and homogenized with a Brinkmann PT-3100 Polytron homogenizer for 15 seconds at setting 6. The concentration of membrane protein is determined using the BRL Bradford protein assay.
For total binding, a total volume of 50 ul of appropriately diluted membranes (diluted in assay buffer containing 50 mM Tris HCl (pH 7.4), 1 mM MgCl2, and 1 mM EDTA; 5-50 ug protein) is added to 96-well polyproylene microtiter plates followed by addition of 100 μl of assay buffer and 50 μl of Radiolabelled MCH Ligand. For nonspecific binding, 50 μl of assay buffer is added instead of 100 μl and an additional 50 μl of 10 uM cold MCH is added before 50 μl of Radiolabelled MCH Ligand is added. Plates are then incubated at room temperature for 60-120 minutes. The binding reaction is terminated by filtering assay plates through a Microplate Devices GF/C Unifilter filtration plate with a Brandell 96-well plate harvester followed by washing with cold 50 mM Tris HCl, pH 7.4 containing 0.9% NaCl. Then, the bottom of the filtration plate are sealed, 50 ul of Optiphase Supermix is added to each well, the top of the plates are sealed, and plates are counted in a Trilux MicroBeta scintillation counter. For compound competition studies, instead of adding 100 μl of assay buffer, 100 μl of appropriately diluted test compound is added to appropriate wells followed by addition of 50 μl of Radiolabelled MCH Ligand.
The test compounds are initially assayed at 1 and 0.1 μM and then at a range of concentrations chosen such that the middle dose would cause about 50% inhibition of a Radiolabelled MCH Ligand binding (i.e., IC50). Specific binding in the absence of test compound (BO) is the difference of total binding (BT) minus non-specific binding (NSB) and similarly specific binding (in the presence of test compound) (B) is the difference of displacement binding (BD) minus non-specific binding (NSB). IC50 is determined from an inhibition response curve, logit-log plot of % B/BO vs. concentration of test compound.
Ki is calculated by the Cheng and Prustoff transformation: […]

Chain of MCH receptor (Q99705 whole entry): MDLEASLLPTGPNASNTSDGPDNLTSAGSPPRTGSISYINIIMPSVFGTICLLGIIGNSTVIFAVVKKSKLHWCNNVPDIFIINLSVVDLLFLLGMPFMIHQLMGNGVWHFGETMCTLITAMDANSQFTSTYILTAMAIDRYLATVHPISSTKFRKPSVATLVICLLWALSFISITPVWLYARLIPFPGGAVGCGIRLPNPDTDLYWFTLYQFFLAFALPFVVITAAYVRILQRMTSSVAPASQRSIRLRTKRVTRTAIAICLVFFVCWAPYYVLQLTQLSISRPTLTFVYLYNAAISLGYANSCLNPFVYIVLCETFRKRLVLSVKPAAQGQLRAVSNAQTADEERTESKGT

Question: For `Cc1nc(N[C@H]2CC[C@@H](NC(=O)Cc3nc(-c4ccccc4)sc3C)CC2)cc(N(C)C)n1` [compound 289], which class is on record?
Answer: Its class is 3 (Class 3: The value of percent of control at 10^−7 M was more than 60% or the value of IC50 was more than 200 nM.).

Question: How did the class turn out when `Cc1nc(N[C@H]2CC[C@@H](NCc3ccc(N(C)C)cc3)CC2)cc(N(C)C)n1` [compound 368] was run?
Answer: The class was 3 (Class 3: The value of percent of control at 10^−7 M was more than 60% or the value of IC50 was more than 200 nM.).

Question: Which class does the source give for `Cc1nc(N[C@H]2CC[C@@H](NC(=O)c3cccc4c(=O)c(C)c(-c5ccccc5)oc34)CC2)cc(N(C)C)n1` [compound 320] here?
Answer: Its class is 3 (Class 3: The value of percent of control at 10^−7 M was more than 60% or the value of IC50 was more than 200 nM.).

Question: With `C=CCOC(=O)N[C@H]1CC[C@@H](Nc2cc(N(C)C)nc(C)n2)CC1` [compound 462] as the compound, how does the class read?
Answer: The class was 3 (Class 3: The value of percent of control at 10^−7 M was more than 60% or the value of IC50 was more than 200 nM.).

Question: `CC(=O)OC(C(=O)N[C@H]1CC[C@@H](Nc2cc(N(C)C)nc(C)n2)CC1)c1ccccc1` (relative stereo) [compound 197] was tested. Which class did it give?
Answer: Its class is 3 (Class 3: The value of percent of control at 10^−7 M was more than 60% or the value of IC50 was more than 200 nM.).

Question: `Cc1nc(N[C@H]2CC[C@@H](NCc3cc4ccccc4s3)CC2)cc(N(C)C)n1` [compound 357] was tested. Which class did it give?
Answer: Its class is 3 (Class 3: The value of percent of control at 10^−7 M was more than 60% or the value of IC50 was more than 200 nM.).

Question: With `Cc1nc(N[C@H]2CC[C@@H](NS(=O)(=O)c3cccc(F)c3)CC2)cc(N(C)C)n1` [compound 503] as the compound, how does the class read?
Answer: Its class is 3 (Class 3: The value of percent of control at 10^−7 M was more than 60% or the value of IC50 was more than 200 nM.).

Question: Which class does the source give for `Cc1nc(N[C@H]2CC[C@@H](NC(=O)N3CCOCC3)CC2)cc(N(C)C)n1` [compound 225] here?
Answer: Its class is 3 (Class 3: The value of percent of control at 10^−7 M was more than 60% or the value of IC50 was more than 200 nM.).

Question: `Cc1nc(N[C@H]2CC[C@@H](NS(=O)(=O)c3ccc(Cl)c4nonc34)CC2)cc(N(C)C)n1` [compound 521] was tested. Which class did it give?
Answer: Its class is 3 (Class 3: The value of percent of control at 10^−7 M was more than 60% or the value of IC50 was more than 200 nM.).

Question: How did the class turn out when `Cc1nc(N[C@H]2CC[C@@H](NS(=O)(=O)c3c(C)noc3C)CC2)cc(N(C)C)n1` [compound 512] was run?
Answer: The class was 3 (Class 3: The value of percent of control at 10^−7 M was more than 60% or the value of IC50 was more than 200 nM.).

Question: Which class does the source give for `Cc1nc(N[C@H]2CC[C@@H](NCCC3CCCC3)CC2)cc(N(C)C)n1` [compound 402] here?
Answer: The class was 3 (Class 3: The value of percent of control at 10^−7 M was more than 60% or the value of IC50 was more than 200 nM.).

Question: With `Cc1nc(N[C@H]2CC[C@@H](NC(=S)NCC(c3ccccc3)c3ccccc3)CC2)cc(N(C)C)n1` [compound 434] as the compound, how does the class read?
Answer: The class was 3 (Class 3: The value of percent of control at 10^−7 M was more than 60% or the value of IC50 was more than 200 nM.).

Question: With `Cc1nc(N[C@H]2CC[C@@H](NC(=O)c3cc(C(C)(C)C)nn3Cc3ccccc3)CC2)cc(N(C)C)n1` [compound 267] as the compound, how does the class read?
Answer: The class was 3 (Class 3: The value of percent of control at 10^−7 M was more than 60% or the value of IC50 was more than 200 nM.).

Question: For `COc1ccc(NC(=S)N[C@H]2CC[C@@H](Nc3cc(N(C)C)nc(C)n3)CC2)c(OC)c1` [compound 444], which class is on record?
Answer: The class was 3 (Class 3: The value of percent of control at 10^−7 M was more than 60% or the value of IC50 was more than 200 nM.).

Question: For `COc1cc(COC(=O)N[C@H]2CC[C@@H](Nc3cc(N(C)C)nc(C)n3)CC2)c([N+](=O)[O-])cc1OC` [compound 453], which class is on record?
Answer: The class was 3 (Class 3: The value of percent of control at 10^−7 M was more than 60% or the value of IC50 was more than 200 nM.).

Question: For `Cc1nc(N[C@H]2CC[C@@H](NCCOc3ccccc3)CC2)cc(N(C)C)n1` [compound 381], which class is on record?
Answer: The class was 3 (Class 3: The value of percent of control at 10^−7 M was more than 60% or the value of IC50 was more than 200 nM.).

Question: How did the class turn out when `Cc1nc(N[C@H]2CC[C@@H](NC(=O)C3CC3)CC2)cc(N(C)C)n1` [compound 211] was run?
Answer: The class was 3 (Class 3: The value of percent of control at 10^−7 M was more than 60% or the value of IC50 was more than 200 nM.).

Question: For `CCOc1ccccc1NC(=O)N[C@H]1CC[C@@H](Nc2cc(N(C)C)nc(C)n2)CC1` [compound 428], which class is on record?
Answer: The class was 3 (Class 3: The value of percent of control at 10^−7 M was more than 60% or the value of IC50 was more than 200 nM.).

Question: For `Cc1nc(N[C@H]2CC[C@@H](NC(=O)c3cnc4ccccc4n3)CC2)cc(N(C)C)n1` [compound 240], which class is on record?
Answer: Its class is 3 (Class 3: The value of percent of control at 10^−7 M was more than 60% or the value of IC50 was more than 200 nM.).

Question: With `Cc1nc(N[C@H]2CC[C@@H](NC(=O)COc3c(F)c(F)c(F)c(F)c3F)CC2)cc(N(C)C)n1` [compound 244] as the compound, how does the class read?
Answer: Its class is 3 (Class 3: The value of percent of control at 10^−7 M was more than 60% or the value of IC50 was more than 200 nM.).

Question: With `Cc1nc(N[C@H]2CC[C@@H](NS(=O)(=O)c3ccc(S(C)(=O)=O)cc3)CC2)cc(N(C)C)n1` [compound 498] as the compound, how does the class read?
Answer: The class was 3 (Class 3: The value of percent of control at 10^−7 M was more than 60% or the value of IC50 was more than 200 nM.).

Question: Which class does the source give for `Cc1nc(N[C@H]2CC[C@@H](NC(=O)NCc3ccccc3Cl)CC2)cc(N(C)C)n1` [compound 412] here?
Answer: The class was 3 (Class 3: The value of percent of control at 10^−7 M was more than 60% or the value of IC50 was more than 200 nM.).

Question: How did the class turn out when `Cc1nc(N[C@H]2CC[C@@H](NCc3cc(C(C)(C)C)nn3Cc3ccc(Cl)cc3Cl)CC2)cc(N(C)C)n1` [compound 409] was run?
Answer: The class was 3 (Class 3: The value of percent of control at 10^−7 M was more than 60% or the value of IC50 was more than 200 nM.).

Question: For `Cc1nc(N[C@H]2CC[C@@H](NCc3scc(S(=O)(=O)c4ccc(Cl)cc4)c3C)CC2)cc(N(C)C)n1` [compound 367], which class is on record?
Answer: The class was 3 (Class 3: The value of percent of control at 10^−7 M was more than 60% or the value of IC50 was more than 200 nM.).

Question: How did the class turn out when `C=Cc1ccc(S(=O)(=O)N[C@H]2CC[C@@H](Nc3cc(N(C)C)nc(C)n3)CC2)cc1` [compound 482] was run?
Answer: Its class is 3 (Class 3: The value of percent of control at 10^−7 M was more than 60% or the value of IC50 was more than 200 nM.).

Question: With `COc1cc(OC)c(NC(=O)N[C@H]2CC[C@@H](Nc3cc(N(C)C)nc(C)n3)CC2)cc1Cl` [compound 426, N-(5-chloro-2,4-dimethoxyphenyl)-N′-(cis-4-{[6-(dimethylamino)-2-methylpyrimidin-4-yl]amino}cyclohexyl)urea] as the compound, how does the class read?
Answer: Its class is 2 (Class 2: The value of percent of control at 10^−7 M was from 40% to 60% or the value of IC50 was from 50 nM to 200 nM.).

Question: With `Cc1cc(C)c(NC(=O)N[C@H]2CC[C@@H](Nc3cc(N(C)C)nc(C)n3)CC2)c(C)c1` [compound 417] as the compound, how does the class read?
Answer: The class was 3 (Class 3: The value of percent of control at 10^−7 M was more than 60% or the value of IC50 was more than 200 nM.).

Question: `Cc1nc(N[C@H]2CC[C@@H](NC(=O)C3CC(=O)N(Cc4cccs4)C3)CC2)cc(N(C)C)n1` (relative stereo) [compound 282] was tested. Which class did it give?
Answer: Its class is 3 (Class 3: The value of percent of control at 10^−7 M was more than 60% or the value of IC50 was more than 200 nM.).

Question: For `Cc1nc(N[C@H]2CC[C@@H](NC(=O)CC3CCCCC3)CC2)cc(N(C)C)n1` [compound 279], which class is on record?
Answer: The class was 3 (Class 3: The value of percent of control at 10^−7 M was more than 60% or the value of IC50 was more than 200 nM.).

Question: How did the class turn out when `CCc1cccc(C)c1NC(=O)N[C@H]1CC[C@@H](Nc2cc(N(C)C)nc(C)n2)CC1` [compound 421] was run?
Answer: Its class is 3 (Class 3: The value of percent of control at 10^−7 M was more than 60% or the value of IC50 was more than 200 nM.).

Question: For `Cc1nc(N[C@H]2CC[C@@H](NC(=O)OCC3c4ccccc4-c4ccccc43)CC2)cc(N(C)C)n1` [compound 469], which class is on record?
Answer: Its class is 3 (Class 3: The value of percent of control at 10^−7 M was more than 60% or the value of IC50 was more than 200 nM.).
